Laboratory results published in patent publication US20080207705A1, “Heteroaryl-Imidazole Derivatives as Cannabinoid CB1 Receptor Antagonists” (Green Cross Corporation, priority 2007, published 2008).

Each molecule was assayed against T1, rat CB-1 receptor (Rattus norvegicus, UniProt P20272) (assay: rat CB-1 receptor binding protocol with [3H]CP-55940). Details: not given.
T1 construct: The tissue obtained from the brain of SD rats was homogenized; from tissue; host or cells: brain of SD rats (membrane pellet of homogenate)
T1 sequence (P20272 whole entry): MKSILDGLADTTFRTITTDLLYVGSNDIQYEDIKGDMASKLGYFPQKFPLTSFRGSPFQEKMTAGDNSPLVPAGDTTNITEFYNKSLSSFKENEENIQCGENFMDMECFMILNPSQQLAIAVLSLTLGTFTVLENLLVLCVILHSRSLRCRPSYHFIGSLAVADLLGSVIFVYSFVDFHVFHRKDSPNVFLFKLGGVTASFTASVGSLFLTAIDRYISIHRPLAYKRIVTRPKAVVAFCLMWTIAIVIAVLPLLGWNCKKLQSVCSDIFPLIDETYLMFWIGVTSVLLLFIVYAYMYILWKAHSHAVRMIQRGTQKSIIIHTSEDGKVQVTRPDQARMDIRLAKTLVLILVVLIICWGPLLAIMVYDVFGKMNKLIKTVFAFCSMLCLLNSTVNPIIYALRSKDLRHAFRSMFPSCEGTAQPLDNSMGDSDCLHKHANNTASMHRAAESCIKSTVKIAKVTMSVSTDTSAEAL

In order of falling IC50:
1. CCc1c(-c2nnc(C3(C(F)(F)F)CCC3)s2)nc(-c2ccccc2Cl)n1-c1ccc(Br)cc1 [Example 147, 2-(1-(4-Bromophenyl)-2-(2-chlorophenyl)-5-ethyl-1H-imidazol-4-yl)-5-(1-(trifluoromethyl)cyclobutyl)-1,3,4-thiadiazole]  0.00533 µM
2. CC(C)(C)c1nnc(-c2nc(-c3ccccc3Cl)n(-c3ccc(Br)cc3)c2Cn2cncn2)s1 [Example 168, 2-(5-((1H-1,2,4-Triazol-1-yl)methyl)-1-(4-bromophenyl)-2-(2-chlorophenyl)-1H-imidazol-4-yl)-5-tert-butyl-1,3,4-thiadiazole]  0.00401 µM

Same assay, conditions: [3H]CP-55940, brain tissue of SD rats, 30 °C for 60 min; read-out: IC50

In order of falling IC50:
1. CCc1c(-c2nc(C(C)(C)C)co2)nc(-c2ccc(Cl)cc2Cl)n1-c1ccc(Cl)cc1 [Example 190, 4-tert-Butyl-2-(1-(4-chlorophenyl)-2-(2,4-dichlorophenyl)-5-ethyl-1H-imidazol-4-yl)oxazole]  0.119 µM
2. CCc1sc(-c2nc(-c3ccc(Cl)cc3Cl)n(-c3ccc(Cl)cc3)c2C)nc1C [Example 202, 2-(1-(4-Chlorophenyl)-2-(2,4-dichlorophenyl)-5-methyl-1H-imidazol-4-yl)-5-ethyl-4-methylthiazole]  0.0902 µM
3. Cc1c(-c2nc(C(C)(C)C)co2)nc(-c2ccc(Cl)cc2Cl)n1-c1ccc(Cl)cc1 [Example 189, 4-tert-Butyl-2-(1-(4-chlorophenyl)-2-(2,4-dichlorophenyl)-5-methyl-1H-imidazol-4-yl)oxazole]  0.0883 µM
4. CCc1cnc(-c2nc(-c3ccc(Cl)cc3Cl)n(-c3ccc(Cl)cc3)c2C)o1 [Example 181, 2-(1-(4-Chlorophenyl)-2-(2,4-dichlorophenyl)-5-methyl-1H-imidazol-4-yl)-5-ethyloxazole]  0.084 µM
5. Cc1c(-c2ncc(C3CCCCC3)o2)nc(-c2ccc(Cl)cc2Cl)n1-c1ccc(Cl)cc1 [Example 180, 2-(1-(4-Chlorophenyl)-2-(2,4-dichlorophenyl)-5-methyl-1H-imidazol-4-yl)-5-cyclohexyloxazole]  0.0786 µM
6. CCc1oc(-c2nc(-c3ccc(Cl)cc3Cl)n(-c3ccc(Cl)cc3)c2C)nc1C [Example 192, 2-(1-(4-Chlorophenyl)-2-(2,4-dichlorophenyl)-5-methyl-1H-imidazol-4-yl)-5-ethyl-4-methyloxazole]  0.0779 µM
7. Cc1c(-c2ncc(C3CCCCC3)s2)nc(-c2ccc(Cl)cc2Cl)n1-c1ccc(Cl)cc1 [Example 193, 2-(1-(4-Chlorophenyl)-2-(2,4-dichlorophenyl)-5-methyl-1H-imidazol-4-yl)-5-cyclohexylthiazole]  0.0745 µM
8. CCc1cnc(-c2nc(-c3ccc(Cl)cc3Cl)n(-c3ccc(Cl)cc3)c2C)s1 [Example 194, 2-(1-(4-Chlorophenyl)-2-(2,4-dichlorophenyl)-5-methyl-1H-imidazol-4-yl)-5-ethylthiazole]  0.0702 µM
9. CCCCc1cnc(-c2nc(-c3ccc(Cl)cc3Cl)n(-c3ccc(Cl)cc3)c2C)s1 [Example 195, 5-Butyl-2-(1-(4-chlorophenyl)-2-(2,4-dichlorophenyl)-5-methyl-1H-imidazol-4-yl)thiazole]  0.0633 µM
10. Cc1c(-c2ncc(CC(C)C)s2)nc(-c2ccc(Cl)cc2Cl)n1-c1ccc(Cl)cc1 [Example 197, 2-(1-(4-Chlorophenyl)-2-(2,4-dichlorophenyl)-5-methyl-1H-imidazol-4-yl)-5-isobutylthiazole]  0.0464 µM
11. CCc1c(-c2nc(C(C)(C)C)co2)nc(-c2ccc(Cl)cc2Cl)n1-c1ccc(Br)cc1 [Example 191, 2-(1-(4-Bromophenyl)-2-(2,4-dichlorophenyl)-5-ethyl-1H-imidazol-4-yl)-4-tert-butyloxazole]  0.03 µM
12. Cc1c(-c2ncc(C(C)C)o2)nc(-c2ccc(Cl)cc2Cl)n1-c1ccc(Cl)cc1 [Example 183, 2-(1-(4-Chlorophenyl)-2-(2,4-dichlorophenyl)-5-methyl-1H-imidazol-4-yl)-5-isopropyloxazole]  0.0264 µM
13. CC(C)(C)c1nnc(-c2nc(-c3ccc(Cl)cc3Cl)n(-c3ccc(Br)cc3)c2Cn2cncn2)s1 [Example 164, 2-(5-((1H-1,2,4-Triazol-1-yl)methyl)-1-(4-bromophenyl)-2-(2,4-dichlorophenyl)-1H-imidazol-4-yl)-5-tert-butyl-1,3,4-thiadiazole]  0.0209 µM
14. Cc1c(-c2ncc(C(C)(C)C)o2)nc(-c2ccc(Cl)cc2Cl)n1-c1ccc(Br)cc1 [Example 187, 2-(1-(4-Bromophenyl)-2-(2,4-dichlorophenyl)-5-methyl-1H-imidazol-4-yl)-5-tert-butyloxazole]  0.0169 µM
15. Cc1c(-c2ncc(C(C)C)s2)nc(-c2ccc(Cl)cc2Cl)n1-c1ccc(Cl)cc1 [Example 196, 2-(1-(4-Chlorophenyl)-2-(2,4-dichlorophenyl)-5-methyl-1H-imidazol-4-yl)-5-isopropylthiazole]  0.016 µM
16. Cc1c(-c2ncc(C(C)(C)C)s2)nc(-c2ccc(Cl)cc2Cl)n1-c1ccc(Br)cc1 [Example 200, 2-(1-(4-Bromophenyl)-2-(2,4-dichlorophenyl)-5-methyl-1H-imidazol-4-yl)-5-tert-butylthiazole]  0.016 µM
17. Cc1c(-c2ncc(CC(C)C)o2)nc(-c2ccc(Cl)cc2Cl)n1-c1ccc(Cl)cc1 [Example 184, 2-(1-(4-Chlorophenyl)-2-(2,4-dichlorophenyl)-5-methyl-1H-imidazol-4-yl)-5-isobutyloxazole]  0.0131 µM
18. CCCCc1cnc(-c2nc(-c3ccc(Cl)cc3Cl)n(-c3ccc(Cl)cc3)c2C)o1 [Example 182, 5-Butyl-2-(1-(4-chlorophenyl)-2-(2,4-dichlorophenyl)-5-methyl-1H-imidazol-4-yl)oxazole]  0.0116 µM
19. CCc1c(-c2ncc(C(C)(C)C)s2)nc(-c2ccc(Cl)cc2Cl)n1-c1ccc(Br)cc1 [Example 201, 2-(1-(4-Bromophenyl)-2-(2,4-dichlorophenyl)-5-ethyl-1H-imidazol-4-yl)-5-tert-butylthiazole]  0.0105 µM
20. CCc1c(-c2ncc(C(C)(C)C)o2)nc(-c2ccc(Cl)cc2Cl)n1-c1ccc(Br)cc1 [Example 188, 2-(1-(4-Bromophenyl)-2-(2,4-dichlorophenyl)-5-ethyl-1H-imidazol-4-yl)-5-tert-butyloxazole]  0.00898 µM
21. FC(F)(F)C1(c2nnc(-c3nc(-c4ccc(Cl)cc4Cl)n(-c4ccc(Br)cc4)c3Cn3cncn3)s2)CC1 [Example 165, 2-(5-((1H-1,2,4-Triazol-1-yl)methyl)-1-(4-bromophenyl)-2-(2,4-dichlorophenyl)-1H-imidazol-4-yl)-5-(1-(trifluoromethyl)cyclopropyl)-1,3,4-thiadiazole]  0.00559 µM
22. CCc1c(-c2nnc(C3(c4ccc(Cl)cc4)CC3)s2)nc(-c2ccccc2Cl)n1-c1ccc(Br)cc1 [Example 148, 2-(1-(4-Bromophenyl)-2-(2-chlorophenyl)-5-ethyl-1H-imidazol-4-yl)-5-(1-(4-chlorophenyl)cyclopropyl)-1,3,4-thiadiazole]  0.00493 µM
23. FC(F)(F)C1(c2nnc(-c3nc(-c4ccccc4Cl)n(-c4ccc(Br)cc4)c3Cn3cncn3)s2)CC1 [Example 169, 2-(5-((1H-1,2,4-Triazol-1-yl)methyl)-1-(4-bromophenyl)-2-(2-chlorophenyl)-1H-imidazol-4-yl)-5-(1-(trifluoromethyl)cyclopropyl)-1,3,4-thiadiazole]  0.00473 µM
24. Clc1ccc(C2(c3nnc(-c4nc(-c5ccc(Cl)cc5Cl)n(-c5ccc(Br)cc5)c4Cn4cncn4)s3)CC2)cc1 [Example 167, 2-(5-((1H-1,2,4-Triazol-1-yl)methyl)-1-(4-bromophenyl)-2-(2,4-dichlorophenyl)-1H-imidazol-4-yl)-5-(1-(4-chlorophenyl)cyclopropyl)-1,3,4-thiadiazole]  0.00391 µM
25. Clc1ccc(C2(c3nnc(-c4nc(-c5ccccc5Cl)n(-c5ccc(Br)cc5)c4Cn4cncn4)s3)CC2)cc1 [Example 171, 2-(5-((1H-1,2,4-Triazol-1-yl)methyl)-1-(4-bromophenyl)-2-(2-chlorophenyl)-1H-imidazol-4-yl)-5-(1-(4-chlorophenyl)cyclopropyl)-1,3,4-thiadiazole]  0.0018 µM
26. FC(F)(F)C1(c2nnc(-c3nc(-c4ccccc4Cl)n(-c4ccc(Br)cc4)c3Cn3cncn3)s2)CCC1 [Example 170, 2-(5-((1H-1,2,4-Triazol-1-yl)methyl)-1-(4-bromophenyl)-2-(2-chlorophenyl)-1H-imidazol-4-yl)-5-(1-(trifluoromethyl)cyclobutyl)-1,3,4-thiadiazole]  0.00175 µM
27. FC(F)(F)C1(c2nnc(-c3nc(-c4ccc(Cl)cc4Cl)n(-c4ccc(Br)cc4)c3Cn3cncn3)s2)CCC1 [Example 166, 2-(5-((1H-1,2,4-Triazol-1-yl)methyl)-1-(4-bromophenyl)-2-(2,4-dichlorophenyl)-1H-imidazol-4-yl)-5-(1-(trifluoromethyl)cyclobutyl)-1,3,4-thiadiazole]  0.0017 µM
